Test results: the NIST ThermoML archive (doi:10.1016/j.tca.2014.07.001)
± gives the expanded uncertainty stated by the source.

Details: Liquid; for mass density: 101.33 kPa, Vibrating tube method; for vapor or sublimation pressure: Rate of evaporation

Cc1cc(OC(=O)C(C)(C)C)cc(OC(=O)C(C)(C)C)c1
mass density (323.1 K): 977.806 ± 0.088 kg/m3
mass density (333.1 K): 969.344 ± 0.091 kg/m3
mass density (343.1 K): 960.889 ± 0.093 kg/m3
mass density (353.1 K): 952.427 ± 0.096 kg/m3
mass density (363.1 K): 943.951 ± 0.099 kg/m3
vapor or sublimation pressure (456 K): 1.816 ± 0.43 kPa
vapor or sublimation pressure (460 K): 2.127 ± 0.5 kPa
vapor or sublimation pressure (464 K): 2.485 ± 0.54 kPa
vapor or sublimation pressure (468 K): 2.894 ± 0.62 kPa
vapor or sublimation pressure (472 K): 3.363 ± 0.72 kPa
vapor or sublimation pressure (476 K): 3.898 ± 0.83 kPa
vapor or sublimation pressure (480 K): 4.506 ± 0.95 kPa
vapor or sublimation pressure (484 K): 5.197 ± 1.1 kPa
vapor or sublimation pressure (488 K): 5.98 ± 1.2 kPa
vapor or sublimation pressure (492 K): 6.865 ± 1.4 kPa
vapor or sublimation pressure (496 K): 7.864 ± 1.6 kPa
vapor or sublimation pressure (500 K): 8.989 ± 1.8 kPa
vapor or sublimation pressure (504 K): 10.25 ± 2 kPa
vapor or sublimation pressure (508 K): 11.67 ± 2.2 kPa
vapor or sublimation pressure (512 K): 13.26 ± 2.5 kPa
vapor or sublimation pressure (516 K): 15.03 ± 2.8 kPa
vapor or sublimation pressure (520 K): 17 ± 3.2 kPa
vapor or sublimation pressure (524 K): 19.2 ± 3.5 kPa
vapor or sublimation pressure (528 K): 21.65 ± 3.9 kPa
vapor or sublimation pressure (532 K): 24.36 ± 4.3 kPa
vapor or sublimation pressure (536 K): 26.58 ± 4.4 kPa

CCCCOc1cc(C)cc(OCCCC)c1 [1,3-dibutoxy-5-methylbenzene]
mass density (278.2 K): 955.338 ± 0.095 kg/m3
mass density (298.1 K): 938.896 ± 0.1 kg/m3
mass density (318.1 K): 922.519 ± 0.1 kg/m3
mass density (338.1 K): 906 ± 0.11 kg/m3
mass density (358.1 K): 889.4 ± 0.12 kg/m3
vapor or sublimation pressure (421 K): 1.076 ± 0.28 kPa
vapor or sublimation pressure (425 K): 1.286 ± 0.33 kPa
vapor or sublimation pressure (429 K): 1.533 ± 0.36 kPa
vapor or sublimation pressure (433 K): 1.821 ± 0.42 kPa
vapor or sublimation pressure (437 K): 2.156 ± 0.49 kPa
vapor or sublimation pressure (441 K): 2.545 ± 0.57 kPa
vapor or sublimation pressure (445 K): 2.995 ± 0.67 kPa
vapor or sublimation pressure (449 K): 3.515 ± 0.78 kPa
vapor or sublimation pressure (453 K): 4.114 ± 0.9 kPa
vapor or sublimation pressure (457 K): 4.801 ± 1 kPa
vapor or sublimation pressure (461 K): 5.588 ± 1.2 kPa
vapor or sublimation pressure (465 K): 6.487 ± 1.4 kPa
vapor or sublimation pressure (469 K): 7.512 ± 1.6 kPa
vapor or sublimation pressure (473 K): 8.677 ± 1.8 kPa
vapor or sublimation pressure (477 K): 9.998 ± 2.1 kPa
vapor or sublimation pressure (481 K): 11.49 ± 2.3 kPa
vapor or sublimation pressure (485 K): 13.18 ± 2.6 kPa
vapor or sublimation pressure (489 K): 15.09 ± 2.9 kPa
vapor or sublimation pressure (493 K): 17.23 ± 3.3 kPa
vapor or sublimation pressure (497 K): 19.63 ± 3.7 kPa
vapor or sublimation pressure (501 K): 22.32 ± 4.2 kPa
vapor or sublimation pressure (505 K): 25.32 ± 4.8 kPa
vapor or sublimation pressure (509 K): 28.68 ± 5 kPa
vapor or sublimation pressure (513 K): 32.42 ± 5.7 kPa
vapor or sublimation pressure (517 K): 34.44 ± 5.6 kPa

Cc1cc(OCC(C)C)cc(OCC(C)C)c1 [1-methyl-3,5-bis(2-methylpropoxy)benzene]
mass density (328.2 K): 908.941 ± 0.083 kg/m3
mass density (338.2 K): 901.02 ± 0.086 kg/m3
mass density (348.2 K): 893.071 ± 0.089 kg/m3
mass density (358.2 K): 885.087 ± 0.092 kg/m3
vapor or sublimation pressure (446 K): 2.406 ± 0.59 kPa
vapor or sublimation pressure (449 K): 2.737 ± 0.67 kPa
vapor or sublimation pressure (452 K): 3.108 ± 0.71 kPa
vapor or sublimation pressure (455 K): 3.524 ± 0.8 kPa
vapor or sublimation pressure (458 K): 3.989 ± 0.9 kPa
vapor or sublimation pressure (461 K): 4.508 ± 1 kPa
vapor or sublimation pressure (464 K): 5.086 ± 1.1 kPa
vapor or sublimation pressure (467 K): 5.729 ± 1.3 kPa
vapor or sublimation pressure (470 K): 6.445 ± 1.4 kPa
vapor or sublimation pressure (473 K): 7.238 ± 1.6 kPa
vapor or sublimation pressure (476 K): 8.118 ± 1.8 kPa
vapor or sublimation pressure (479 K): 9.091 ± 1.9 kPa
vapor or sublimation pressure (482 K): 10.17 ± 2.1 kPa
vapor or sublimation pressure (485 K): 11.35 ± 2.3 kPa
vapor or sublimation pressure (488 K): 12.66 ± 2.5 kPa
vapor or sublimation pressure (491 K): 14.1 ± 2.8 kPa
vapor or sublimation pressure (494 K): 15.69 ± 3.1 kPa
vapor or sublimation pressure (497 K): 17.43 ± 3.4 kPa
vapor or sublimation pressure (500 K): 19.33 ± 3.8 kPa
vapor or sublimation pressure (503 K): 21.42 ± 4.2 kPa
vapor or sublimation pressure (506 K): 23.71 ± 4.4 kPa
vapor or sublimation pressure (509 K): 26.21 ± 4.8 kPa

Cc1cc(OCCc2ccccc2)cc(OCCc2ccccc2)c1 [1-methyl-3,5-bis(2-phenylethoxy)benzene]
mass density (283.2 K): 921.532 ± 0.07 kg/m3
mass density (303.2 K): 907.265 ± 0.076 kg/m3
mass density (323.2 K): 893.041 ± 0.081 kg/m3
mass density (343.2 K): 878.854 ± 0.087 kg/m3
mass density (363.2 K): 864.445 ± 0.093 kg/m3
vapor or sublimation pressure (507 K): 1.602 ± 0.37 kPa
vapor or sublimation pressure (510 K): 1.802 ± 0.42 kPa
vapor or sublimation pressure (513 K): 2.024 ± 0.44 kPa
vapor or sublimation pressure (516 K): 2.271 ± 0.49 kPa
vapor or sublimation pressure (519 K): 2.543 ± 0.55 kPa
vapor or sublimation pressure (522 K): 2.845 ± 0.61 kPa
vapor or sublimation pressure (525 K): 3.179 ± 0.68 kPa
vapor or sublimation pressure (528 K): 3.548 ± 0.75 kPa
vapor or sublimation pressure (531 K): 3.954 ± 0.83 kPa
vapor or sublimation pressure (534 K): 4.401 ± 0.92 kPa
vapor or sublimation pressure (537 K): 4.893 ± 1 kPa
vapor or sublimation pressure (540 K): 5.434 ± 1.1 kPa
vapor or sublimation pressure (543 K): 6.027 ± 1.2 kPa
vapor or sublimation pressure (546 K): 6.678 ± 1.4 kPa
vapor or sublimation pressure (549 K): 7.39 ± 1.5 kPa
vapor or sublimation pressure (552 K): 8.17 ± 1.7 kPa
vapor or sublimation pressure (555 K): 9.022 ± 1.8 kPa
vapor or sublimation pressure (558 K): 9.952 ± 2 kPa
vapor or sublimation pressure (561 K): 10.97 ± 2.1 kPa
vapor or sublimation pressure (564 K): 12.07 ± 2.3 kPa
vapor or sublimation pressure (567 K): 13.28 ± 2.4 kPa
vapor or sublimation pressure (570 K): 14.59 ± 2.6 kPa
vapor or sublimation pressure (573 K): 15.52 ± 2.6 kPa

Cc1cc(OC(C)C)cc(OC(C)C)c1 [1-methyl-3,5-bis(propan-2-yloxy)benzene]
mass density (283.2 K): 963.279 ± 1.8 kg/m3
mass density (303.2 K): 945.753 ± 1.7 kg/m3
mass density (323.2 K): 928.213 ± 1.7 kg/m3
mass density (343.2 K): 910.635 ± 1.6 kg/m3
mass density (363.2 K): 892.968 ± 1.6 kg/m3
vapor or sublimation pressure (419 K): 2.389 ± 0.58 kPa
vapor or sublimation pressure (422 K): 2.713 ± 0.66 kPa
vapor or sublimation pressure (425 K): 3.074 ± 0.69 kPa
vapor or sublimation pressure (428 K): 3.478 ± 0.78 kPa
vapor or sublimation pressure (431 K): 3.928 ± 0.87 kPa
vapor or sublimation pressure (434 K): 4.428 ± 0.98 kPa
vapor or sublimation pressure (437 K): 4.984 ± 1.1 kPa
vapor or sublimation pressure (440 K): 5.601 ± 1.2 kPa
vapor or sublimation pressure (443 K): 6.285 ± 1.4 kPa
vapor or sublimation pressure (446 K): 7.041 ± 1.5 kPa
vapor or sublimation pressure (449 K): 7.876 ± 1.7 kPa
vapor or sublimation pressure (452 K): 8.796 ± 1.9 kPa
vapor or sublimation pressure (455 K): 9.811 ± 2.1 kPa
vapor or sublimation pressure (458 K): 10.93 ± 2.2 kPa
vapor or sublimation pressure (461 K): 12.15 ± 2.4 kPa
vapor or sublimation pressure (464 K): 13.49 ± 2.7 kPa
vapor or sublimation pressure (467 K): 14.97 ± 2.9 kPa
vapor or sublimation pressure (470 K): 16.58 ± 3.2 kPa
vapor or sublimation pressure (473 K): 18.34 ± 3.5 kPa
vapor or sublimation pressure (476 K): 20.26 ± 3.7 kPa
vapor or sublimation pressure (479 K): 22.36 ± 4.1 kPa

CCCCC(=O)Oc1cc(C)cc(OC(=O)CCCC)c1 [3-methyl-5-(pentanoyloxy)phenyl pentanoate]
mass density (278.2 K): 1031.85 ± 0.3 kg/m3
mass density (298.1 K): 1015.28 ± 0.28 kg/m3
mass density (318.1 K): 998.841 ± 0.27 kg/m3
mass density (338.1 K): 982.449 ± 0.27 kg/m3
mass density (358.1 K): 966.043 ± 0.27 kg/m3
vapor or sublimation pressure (464 K): 0.708 ± 0.18 kPa
vapor or sublimation pressure (468 K): 0.844 ± 0.22 kPa
vapor or sublimation pressure (472 K): 1.004 ± 0.23 kPa
vapor or sublimation pressure (476 K): 1.19 ± 0.27 kPa
vapor or sublimation pressure (480 K): 1.406 ± 0.32 kPa
vapor or sublimation pressure (484 K): 1.657 ± 0.37 kPa
vapor or sublimation pressure (488 K): 1.948 ± 0.43 kPa
vapor or sublimation pressure (492 K): 2.284 ± 0.5 kPa
vapor or sublimation pressure (496 K): 2.671 ± 0.58 kPa
vapor or sublimation pressure (500 K): 3.116 ± 0.68 kPa
vapor or sublimation pressure (504 K): 3.626 ± 0.78 kPa
vapor or sublimation pressure (508 K): 4.209 ± 0.9 kPa
vapor or sublimation pressure (512 K): 4.875 ± 1 kPa
vapor or sublimation pressure (516 K): 5.633 ± 1.2 kPa
vapor or sublimation pressure (520 K): 6.495 ± 1.4 kPa
vapor or sublimation pressure (524 K): 7.472 ± 1.5 kPa
vapor or sublimation pressure (528 K): 8.579 ± 1.8 kPa
vapor or sublimation pressure (532 K): 9.828 ± 2 kPa
vapor or sublimation pressure (536 K): 11.24 ± 2.2 kPa
vapor or sublimation pressure (540 K): 12.82 ± 2.5 kPa
vapor or sublimation pressure (544 K): 14.6 ± 2.8 kPa
vapor or sublimation pressure (548 K): 16.6 ± 3.1 kPa
vapor or sublimation pressure (552 K): 18.83 ± 3.5 kPa
vapor or sublimation pressure (556 K): 21.33 ± 3.8 kPa
vapor or sublimation pressure (560 K): 24.11 ± 4.3 kPa
